According to ChEMBL document CHEMBL5241077 (Eur J Med Chem, 2021):
pEC50, pIC50: −log10 of the molar value. Converted amounts (≈) assume the structure as drawn.

How the values were obtained:
dengue virus type 2 [1] = assay: Antiviral activity against DENV2 PL046 infected in hamster BHK-21 cells assessed as reduction in plaque forming unit incubated for 7 days by crystal violet staining analysis; format: functional, organism-based; details: PL046, BHK-21, 168 h
dengue virus type 2 [2] = assay: Antiviral activity against DENV2 infected hamster BHK cells assessed as inhibition of virus-induced cytopathogenicity and measured after 20 hrs by flow cytometry; format: functional, organism-based
dengue virus type 2 [3] = assay: Antiviral activity against DENV2 16681 infected in African green monkey Vero E6 cells assessed as inhibition of virus-induced cytopathic effect incubated for 1.5 hrs by plaque assay; format: functional, organism-based; details: Dengue virus, 16681, Vero
dengue virus type 2 [4] = assay: Antiviral activity against DENV2 infected in African green monkey Vero E6 cells assessed as inhibition of viral titer incubated for 48 hrs by plaque reduction assay; format: functional, organism-based
dengue virus type 2 [5] = assay: Antiviral activity against DENV2 infected in African green monkey Vero E6 cells assessed as inhibition of viral replication incubated for 5 days by crystal violet staining based plaque reduction assay; format: functional, organism-based; details: 120 h
dengue virus type 2 [6] = assay: Antiviral activity against DENV2 infected in human HEK293 cells assessed as reduction in viral load incubated for 3 days by plaque reduction assay; format: functional; details: HEK293, 72 h, time 3 day
[7] = Binding affinity to Dengue virus serotype 2 envelope stem (419 to 447 residues) trimer peptide incubated for 3 hrs by fluorescence polarization assay; parameters: species or system dengue virus type 2
dengue virus type 2 [8] = assay: Antiviral activity against DENV2 TSV01 infected in Asian tiger mosquito C6/36 cells assessed as reduction in plaque forming unit incubated for 1 hrs by propidium iodide staining based fluorescence analysis; format: functional, organism-based; details: TSV01, C6/36, 1 h
dengue virus type 2 [9] = assay: Antiviral activity against DENV2 ThNH-7/93 infected in hamster BHK-21 cells assessed as reduction in viral entry incubated for 2 hrs by focus forming assay; format: functional, organism-based; details: ThNH-7/93, BHK-21, 2 h
dengue virus type 2 [10] = assay: Antiviral activity against DENV2 ThNH-7/93 infected in hamster BHK-21 cells assessed as reduction in virus titer incubated for 2 hrs by focus forming assay; format: functional, organism-based; details: ThNH-7/93, BHK-21, 2 h
dengue virus type 2 [11] = assay: Antiviral activity against DENV2 […] infected in hamster BHK-21 cells assessed as reduction viral titer incubated for 48 hrs by plaque assay; format: functional, organism-based; details: BHK-21, 48 h
dengue virus type 2 [12] = assay: Antiviral activity against DENV2 New Guinea C infected in hamster BHK-21 cells assessed as reduction viral titer incubated for 48 hrs by plaque assay; format: functional, organism-based; details: BHK-21, 48 h

CN(C)[C@@H]1C(O)=C(C(=O)NCN2CCCC2)C(=O)[C@@]2(O)C(O)=C3C(=O)c4c(O)cccc4[C@@](C)(O)[C@H]3C[C@@H]12 [ROLITETRACYCLINE]
pIC50 (dengue virus type 2 [1]): 4.17

O=P(O)(O)OC[C@H]1O[C@H](OC2[C@H](OS(=O)(=O)O)[C@@H](OC3C(OS(=O)(=O)O)O[C@H](COS(=O)(=O)O)[C@@H](OS(=O)(=O)O)[C@@H]3OS(=O)(=O)O)O[C@H](COS(=O)(=O)O)[C@H]2OS(=O)(=O)O)[C@@H](OS(=O)(=O)O)[C@@H](OS(=O)(=O)O)[C@@H]1OS(=O)(=O)O (stereo not given in full)
EC50 (dengue virus type 2 [2]): 200 µg/mL (≈ 144 µM)

O=C(O)C[C@@H]1C(=O)O[C@H]2[C@@H]3OC(=O)c4cc(O)c(O)c(O)c4-c4c(cc(O)c(O)c4O)C(=O)OC[C@H]2O[C@@H](OC(=O)c2cc(O)c(O)c(O)c2)[C@@H]3OC(=O)c2cc(O)c(O)c3c2[C@H]1[C@H](O)C(=O)O3 [CHEBULAGIC ACID]
pEC50 (dengue virus type 2 [3]): 4.88

CO[C@H]1O[C@H](COS(=O)(=O)O)[C@H](O[C@@H]2O[C@H](CO)[C@H](O)[C@H](C)[C@H]2OS(=O)(=O)O)[C@H](O)[C@H]1OS(=O)(=O)O
IC50 (dengue virus type 2 [4]): 0.14 µg/mL (≈ 0.235 µM)

O=C1O[C@H]2[C@@H]3OC(=O)c4cc(O)c(O)c(O)c4-c4c(cc(O)c(O)c4O)C(=O)OC[C@H]2O[C@@H](OC(=O)c2cc(O)c(O)c(O)c2)[C@@H]3OC(=O)c2cc(O)c(O)c3c2[C@@H]2C1=CC(=O)[C@](O)(O3)C2(O)O [GERANIIN]
pIC50 (dengue virus type 2 [5]): 5.76

Nc1c(C(=O)Nc2nc(-c3ccccc3)cs2)sc2nc3c(cc12)CC(c1ccccc1)CC3 (stereo not given)
IC90 (dengue virus type 2 [6]): 0.112 µM

C[C@H]1c2cccc(O)c2C(=O)C2=C(O)[C@]3(O)C(=O)C(C(N)=O)=C(O)[C@@H](N(C)C)[C@@H]3[C@@H](O)[C@@H]21 [DOXYCYCLINE]
pIC50 (dengue virus type 2 [1]): 4.25

N#C/C(=N\Nc1cccc(Cl)c1)C(=O)c1ccco1
pIC50 [7]: 4.82

Nc1c(C(=O)Nc2nc(-c3ccccc3)cs2)sc2nc3c(cc12)CN(c1ccccc1)CC3
IC90 (dengue virus type 2 [6]): 0.025 µM

O=C(O)c1cc(=O)c2ccc(S[C@@H](/C=C/C=C/CCOc3ccc(Cl)c(Cl)c3)[C@H](O)c3cccc(C(F)(F)F)c3)cc2o1
pIC50 (dengue virus type 2 [8]): 5.17

CC(=O)N[C@@H]1[C@@H](O[C@@H]2O[C@H](C(=O)O)[C@@H](O)[C@H](O)[C@H]2O)[C@@H](O)[C@@H](OS(=O)(=O)O)O[C@H]1O
EC50 (dengue virus type 2 [9]): 1.5 µg/mL (≈ 3.24 µM)

O=S(=O)(O)O[C@@H]1[C@@H](OS(=O)(=O)O)[C@H](O[C@@H]2CO[C@@H](O)[C@H](OS(=O)(=O)O)[C@H]2OS(=O)(=O)O)OC[C@H]1O
EC50 (dengue virus type 2 [2]): 30 µg/mL (≈ 49.8 µM)

C[C@@H]1O[C@H](C)[C@@H](O)[C@H](O)[C@@H]1OS(=O)(=O)O
IC50 (dengue virus type 2 [10]): 4.7 µg/mL (≈ 19.4 µM)

CC(=O)N[C@@H]1[C@@H](O[C@@H]2O[C@@H](C(=O)O)[C@@H](O)[C@H](O)[C@H]2O)[C@@H](OS(=O)(=O)O)[C@@H](CO)O[C@H]1O
IC50 (dengue virus type 2 [11]): 0.3 µg/mL (≈ 0.628 µM)
IC50 (dengue virus type 2 [12]): 3 µg/mL (≈ 6.28 µM)
